# Laboratory results: patent US20120121692A1, “COMPOUNDS AND COMPOSITIONS COMPRISING CDK INHIBITORS AND METHODS FOR TREATING CANCER” (SHANDONG UNIVERSITY, priority 2009, published 2012)
# What was measured:
# [1] = tested on: Human Colon Carcinoma HCT116 xenograft; assay: In vivo human colon carcinoma HCT116 xenograft test; design: species or system BALB/cASlac-nu mice
# Experimental: (E)-3-(2-Chlorophenyl)-1-(2-hydroxy-4,6-dimethoxy-3-(1,2,3,6-tetrahydropyridine-4-yl)phenyl)-2-propylene-1-one hydrochloride, B2, was dissolved in a pyrogen-free, sterile PBS solution containing 1% dimethyl sulfoxide (DMSO). For daily injections, a freshly prepared solution was stored at 4° C. Before injection the B2 solution was warmed up to 37° C. and vigorously agitated in a vortex. B2 was administered through intraperitoneal injection (i.p.), 2.5, or 7.5 mg/kg/d, 20 days.
# The positive control animals received 5 mg/kg/d doxorubicin intraperitoneally (i.p.), and the blank group mice received PBS solution containing 1% DMSO i.p., 5 mL/kg/d.
# Female BALB/cASlac-nu mice (SLAC LABORATORY ANIMAL, Shanghai), ages 4 to 5 weeks, were used in this procedure. Animals were maintained according to the guidelines established by the National Institutes of Health.
# The Human Colon Carcinoma HCT116 were grown in RPMI-1640 medium with 10% fetal calf serum and L-glutamine, and the cells were maintained using standard tissue culture conditions.
# For the production of s.c. tumors, 1×10^7 cells in 0.1 mL of medium without serum were inoculated in the right flank of mice. After the tumors were implanted and reached a palpable size, the mice were randomized into control and treatment groups (n=6)
# Subcutaneous tumors were measured with caliper, and the weight of the animals recorded at least three times a week. Tumor volume was estimated from caliper measurements of two perpendicular dimensions of the tumor in millimeters using the formula:
# Tumor Volume(mm^3)=length(mm)×width(mm)^2/2
# Tumor Inhibition Ratio (%)=(the blank group tumor weight average−the treatment group tumor weight average)/the blank group tumor weight average×100
# Relative Tumor Volume (RTV)=Vt/V0. V0: the tumor volume measured at the time of randomization; Vt: the tumor volume measured each time during the administration.
# Relative Increment Ratio T/C (%)=the treatment group(T) RTV/the blank control group(C) RTV×100. T/C(%)>40: inefficacy; T/C(%)≦40, and P<0.05: utility.
# HCT116 cells = assay: MTT cytotoxicity screening, human colon cancer cell line HCT116; format: cell-based; details: Homo sapiens, HCT-116, 48 hrs incubation, absorbance 490 nm, primary screening, read-out: IC50
# Summary of the method: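 HCT116 cells seeded at 2.5×10^4 cells/ml, treated 24 h later for 48 h with compounds in medium (final DMSO 0.1%-0.001% v/v); dose series 100 μM–1 μM or 10 μM–62.5 nM, primary screen at 100 and 10 μM. Viability read by MTT (4 h, 37° C), formazan dissolved in DMSO, absorbance 490 nm.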
smiles,measurement,setting,value
"COc1cc(OC)c(C2=CCNCC2)c(O)c1C(=O)/C=C/c1ccccc1Cl [Compound B2, (E)-3-(2-chlorophenyl)-1-(2-hydroxy-4,6-dimethoxy-3-(1,2,3,6-tetrahydropyridine-4-yl)phenyl)-2-propylene-1-one]",% inhibit. (tumor inhibition ratio by tumor weight),[1]; 2.5 mg/kg/d × 20 d i.p.,88.2%
same,RTV (relative tumor volume Vt/V0),[1]; 2.5 mg/kg/d × 20 d i.p.,2.86 ± 0.202
same,TIV (%),[1]; 2.5 mg/kg/d × 20 d i.p.,19.0%
same,Tumor wgt.,[1]; 2.5 mg/kg/d × 20 d i.p.,0.041 ± 0.0093 g
same,Tumor vol. (mm^3) Final,[1]; 2.5 mg/kg/d × 20 d i.p.,121 ± 78.2 mm^3
same,Tumor vol. (mm^3) Initial,[1]; 2.5 mg/kg/d × 20 d i.p.,53 ± 28.0 mm^3
same,% inhibit. (tumor inhibition ratio by tumor weight),[1]; 7.5 mg/kg/d × 20 d i.p.,−25.6%
same,RTV (relative tumor volume Vt/V0),[1]; 7.5 mg/kg/d × 20 d i.p.,12.57 ± 0.667
same,TIV (%),[1]; 7.5 mg/kg/d × 20 d i.p.,83.3%
same,Tumor wgt.,[1]; 7.5 mg/kg/d × 20 d i.p.,0.437 ± 0.3105 g
same,Tumor vol. (mm^3) Final,[1]; 7.5 mg/kg/d × 20 d i.p.,777 ± 459.5 mm^3
same,Tumor vol. (mm^3) Initial,[1]; 7.5 mg/kg/d × 20 d i.p.,58 ± 39.7 mm^3
same,optimal T/C (relative increment ratio),"[1]; HCT116 xenografts, dosage of 2.5 mg/kg/day",19.0%
same,toxicity during the administration,"[1]; two B2 treatment groups, 2.5 or 7.5 mg/kg/d i.p., 20 days",no significant toxicity was found
same,IC50,HCT116 cells,100 nM
